{"source": "patent US20090098050A1", "about": "“CALCIUM BINDING PEPTIDES” (THE REGENTS OF THE UNVERSITY OF CALIFORNIA, priority 2005, published 2009)", "key": {"[1]": {"test": "Binding to calcium oxalate crystals (fluorescence microscopy)", "conditions": "12.5 μM labeled peptide, ten minutes", "procedure": "FIG. 11: Binding of 8DSS peptide to calcium oxalate. Calcium oxalate crystals were exposed to 12.5 μM 8DSS peptide, washed, and imaged by fluorescence microscopy as described in Example 12. […] The brightfield image (top) confirms the presence of crystals, while the fluorescence image of the same region (bottom) confirms that calcium oxalate has no visible fluorescence under these conditions. […] Calcium oxalate was prepared using a previously described method (Wang 2006). Crystals of calcium oxalate were washed with deionized water, then resuspended in a solution containing 50 mM HEPES pH 7.0, 10 mM NaCl, and 12.5 μM 5(6)-carboxyfluorescein-labeled 8DSS peptide. The crystal suspension was incubated at room temperature for ten minutes. The crystals were then harvested by centrifugation, washed twice with a solution of 50 mM HEPES pH 7.0 and 10 mM NaCl, and visualized by fluorescence microscopy as described in Example 11."}, "[2]": {"test": "Tissue specificity of binding in demineralized and nondemineralized teeth (CLSM)", "parameters": "species or system human", "conditions": "12.5 μM labeled peptide", "procedure": "FIG. 6: Tissue specificity of 8DSS peptide binding and its dependence on mineralization state. Demineralized and nondemineralized human teeth samples were incubated with 12.5 μM 5(6)-carboxyfluorescein-labeled 8DSS peptide as described in Example 9, and sections were rinsed and imaged by CLSM. […] The dentin-enamel junction, labeled DEJ, is clearly demarcated in both cases.\nSagitally sectioned human teeth were either demineralized by incubation with 0.5 M EDTA for 15 minutes or left nondemineralized. Samples were then incubated for ten minutes in a solution of 12.5 μM 5(6)-carboxyfluorescein-labeled 8DSS, 10 mM NaCl, and 50 mM HEPES, pH 7.0. Control samples were incubated without peptide. Sections were then rinsed and imaged by CLSM using identical laser and camera settings."}, "[3]": {"test": "Remineralization of demineralized dentin surfaces with Quell Desensitizer (SEM)", "parameters": "species or system human", "conditions": "12.5 μM peptide one hour, then Quell Desensitizer 15 minutes", "procedure": "FIG. 4: Remineralization of tooth surfaces with DSS peptides. Extracted human teeth were sagitally sectioned and demineralized with 19% EDTA gel for 1 hour, followed by immersion in deionized water and ultrasonication to remove excess debris. Samples were treated as indicated, then imaged by Scanning Electron Microscopy. Scale bars=50 μm. A. Demineralized control samples. B. Treated with 8DSS for 1 hour, rinsed, and remineralized using Quell Desensitizer. C. Treated with buffer only, remineralized using Quell Desensitizer. D. No treatment, remineralized using Quell Desensitizer. Extracted human teeth were sagitally sectioned (Accutom-50, CA-231 diamond blade) and demineralized with 19% EthyleneDiaminoTetraAcetic acid (EDTA) gel for one hour, followed by immersion in deionized water and ultrasonication to remove excess debris. Samples were treated with 12.5 μM 8DSS peptide in 50 mM HEPES buffer (pH 7.0), buffer only (no peptide), or left untreated. After one hour, samples were remineralized for 15 minutes with Quell Desensitizer (Pentron technologies, LLC), a remineralization solution consisting of aqueous solutions of calcium chloride and potassium phosphate. Samples were rinsed thoroughly prior to imaging by scanning electron microscopy (SEM)."}, "[4]": {"test": "Accumulation of calcium phosphate by immobilized peptide on streptavidin beads", "conditions": "biotin-conjugated peptide on beads, PBS+1 mM CaCl2+1 mM NaHPO4, twelve days", "procedure": "FIG. 3: Interaction of immobilized 8DSS peptide with CaHPO4. Streptavidin-coated polystyrene beads were incubated with biotin-conjugated 8DSS (A and C) or unconjugated biotin (B) and (D). Beads were washed and incubated in a solution of PBS+1 mM CaCl2+1 mM NaHPO4 for twelve days prior to imaging. A. Brightfield micrographs of aggregates of amorphous calcium phosphate that accumulated around DSS-coated beads. All calcium phosphate aggregates of significant size were associated with one or more beads. B. Brightfield image of representative biotin-blocked beads (no DSS peptide). No significant amount of precipitate was associated with these beads. C. Phase-contrast micrograph of a DSS-coated bead with a more ordered accretion of calcium phosphate around its exterior (note the spherical center of the object). These objects were not seen in control samples (biotin-blocked, no DSS peptide), as illustrated in (D). Scale Bars=4 μm. Streptavidin-coated polystyrene beads with an average diameter of 4 μm (Spherotech P.L.C.) were incubated with either biotin-conjugated 8DSS peptide or unconjugated biotin. Beads were washed with PBS to remove unbound peptide (or unbound biotin, in the case of the control beads) and incubated in a solution of PBS+1 mM CaCl2+1 mM NaHPO4 for twelve days prior to imaging. […] All calcium phosphate aggregates of significant size were associated with one or more beads. […]"}}, "data": [{"substance": "8DSS: peptide containing eight Asp-Ser-Ser (DSS) repeats, SEQ ID NO:15 (DSSDSSDSSDSSDSSDSSDSSDSS; calcium binding peptide containing eight DSS repeats, 8DSS)", "values": [{"measurement": "Staining of calcium oxalate aggregates", "setting": "[1]", "value": "significant staining"}, {"measurement": "Binding pattern in demineralized tooth tissue", "setting": "[2]; demineralized sample", "value": "Primary binding is to the demineralized enamel (E) with little binding to the dentin (D)"}, {"measurement": "Binding pattern in nondemineralized tooth tissue", "setting": "[2]; nondemineralized sample", "value": "primary binding is to the dentin (D) with little or no binding to the enamel (E)"}, {"measurement": "Mineral precipitate accumulation on demineralized dentin", "setting": "[3]", "value": "accumulated a continuous layer of calcium phosphate precipitate, fully occluding the dentinal tubules"}, {"measurement": "Calcium phosphate accumulation around peptide-coated beads", "setting": "[4]", "value": "incorporated into large aggregates of precipitated amorphous calcium phosphate"}]}]}
